# Assay results as given in US11096985B2, “Antimicrobial peptides, their variants and uses” (priority 2015, dated 2021).
# Where a SMILES comes first, the peptide text is derived from it. [ ]: non-standard residue; d: D form.
# Legend:
# S. aureus RN4220 = format: cell-based, Staphylococcus aureus; conditions: antibiotic sensitive strain S. aureus RN4220
# Method: (§1) Minimum inhibition concentrations (MICs) were determined against Escherichia coli (ATCC 25922), Staphylococcus aureus (ATCC 25923), Klebsiella pneumoniae (ATCC 10031) and Pseudomonas aeruginosa (ATCC 27853). Also clinical strains of E. coli, K. pneumoniae, E. cloacae, P. aeruginosa, Serratia marcescens, Proteus mirabilis, S. pneumoniae, Acinetobacter baumannii, A. johnsonii and S. aureus were used for MICs assays. Additionally, clinical strains of yeast including Candida albicans, C. glabrata, C. parapsilosis and C. quillermondiae were used. The susceptibility of these microorganisms to Chain peptides were determined using micro broth dilution assay. Colonies of the respective microorganism from Muller Hinton (MH) agar plates incubated overnight were suspended in MH broth media and final concentration of microorganism was adjusted to 5.0×10^5 cfu/ml. An aliquot of 10 μl of each Chain peptide, or gentamicin, tetracycline as reference antibiotics were added in differing concentrations along with 90 μl of bacterial suspension to 96 well polypropylene plates and incubated at 37° C. for 20 to 24 hours. Concentrations of Chain peptides and reference antibiotics ranged from 0.125 to 128 μg/ml and the MICs were recorded as the lowest concentration with no visual growth of bacteria. Similarly, antifungal MICs were tested in Potato dextrose broth.
# (§2) Peptides Chain 104, Chain 105, Chain 201, Chain 308, Chain 310 were tested against antibiotic-sensitive strains of S. aureus RN4220 and methicillin resistant strains of S. aureus COL (MRSA). Chain peptides comprising of either L- or D-form amino acids were tested against these bacteria, and the D-form peptides were found have better activity compared to L-form (Table 6). Synergistic activity of chain peptides along with Ertapenem (4 μg/ml) was tested to know whether it will influence the activity against MRSA strains. […] Chain 310 has the best antibacterial activity against the MRSA strains with a MIC of 0.06 & 0.03 μg/ml along with Ertapenem (4 μg/ml) for both forms of L and D-peptides (Table 6).
# S. aureus COL (MRSA) = test: Synergistic activity with Ertapenem (4 μg/ml) against MRSA, MIC; format: cell-based, Staphylococcus aureus; conditions: S. aureus COL, together with 4 μg/ml Ertapenem (synergistic activity)
# Method: as §1, §2
# [1] = tested on: clinical strains of Candida albicans; test: MIC, clinical yeast strains, Candida albicans; format: cell-based; parameters: unit: μg/ml
# Method: as §1
# (§3) Clinical strains of yeasts including Candida albicans, C. glabrata, C. parapsilosis and C. quillermondiae were also tested with the 12 Chain peptides. The minimum inhibitory concentration (MICs) varied between these peptides and are presented in Tables 4a, 4b, 4c and 5a, 5b, 5c. Peptides Chain 105, 201 and 308 are broad spectrum antimicrobials with MICs between 0.5-32 μg/ml against all the bacteria and yeasts tested, except Serratia marcescens and Proteus mirabilis, against which the MICs were between 64-128 μg/ml. Peptide Chain 306 has narrow spectrum activity against E.coli at 1 μg/ml and for the rest of the bacterial strains at >32 μg/ml (FIG. 10).
# [2] = tested on: clinical strains of C. glabrata; test: MIC, clinical yeast strains, C. glabrata; format: cell-based, Candida glabrata; parameters: unit: μg/ml
# Method: as §1, §3
# [3] = tested on: clinical strains of C. parapsilosis; test: MIC, clinical yeast strains, C. parapsilosis; format: cell-based, Candida parapsilosis; parameters: unit: μg/ml
# Method: as §1, §3
# [4] = tested on: clinical strains of C. quillermondiae; test: MIC, clinical yeast strains, C. quillermondiae; format: cell-based; conditions: C. quillermondiae clinical yeast strain 1
# Method: as §1, §3
# [5] = Candida albicans clinical yeast strain 1
# [6] = Candida albicans clinical yeast strain 2
# [7] = Candida albicans clinical yeast strain 3
# [8] = Candida albicans clinical yeast strain 4
# [9] = Candida albicans clinical yeast strain 5
# [10] = C. glabrata clinical yeast strain 1
# [11] = C. glabrata clinical yeast strain 2
# [12] = C. glabrata clinical yeast strain 3
# [13] = C. glabrata clinical yeast strain 4
# [14] = C. parapsilosis clinical yeast strain 1
# [15] = C. parapsilosis clinical yeast strain 2
# [16] = C. parapsilosis clinical yeast strain 3
# [17] = C. parapsilosis clinical yeast strain 4
smiles,measurement,setting,value
CC[C@@H](C)[C@@H](NC(=O)[C@@H](CCSC)NC(=O)[C@@H](C)NC(=O)[C@@H](CCCNC(=N)N)NC(=O)[C@@H](Cc1c[nH]c2ccccc12)NC(=O)[C@@H](CCCCN)NC(=O)[C@H](N)CCCNC(=N)N)C(=O)N[C@H](CCCNC(=N)N)C(=O)N[C@H](CC(C)C)C(=O)N[C@H](Cc1c[nH]cn1)C(=O)N[C@H](C)C(=O)N[C@H](CCCCN)C(=O)N[C@H](CCCNC(=N)N)C(=O)N[C@H](CC(C)C)C(=O)N[C@H](CCCNC(=N)N)C(=O)N[C@H](CCCCN)C(=O)O [104 D] (H-[dR][dK][dW][dR][dA][dM][dI][dR][dL][dH][dA][dK][dR][dL][dR][dK]-OH),"Minimum inhibitory concentration (MIC), S. aureus RN4220",S. aureus RN4220,64 µg/mL
same,"Minimum inhibitory concentration (MIC), S. aureus COL + 4 μg/ml Ertapenem",S. aureus COL (MRSA),4 µg/mL
CC[C@@H](C)[C@@H](NC(=O)[C@@H](CCSC)NC(=O)[C@@H](C)NC(=O)[C@@H](CCCNC(=N)N)NC(=O)[C@@H](Cc1c[nH]c2ccccc12)NC(=O)[C@@H](CCCCN)NC(=O)[C@H](N)CCCNC(=N)N)C(=O)N[C@H](CCCNC(=N)N)C(=O)N[C@H](CC(C)C)C(=O)N[C@H](Cc1c[nH]cn1)C(=O)N[C@H](C)C(=O)N[C@H](CCCCN)C(=O)N[C@H](Cc1c[nH]c2ccccc12)C(=O)N[C@H](CC(C)C)C(=O)N[C@H](CCCNC(=N)N)C(=O)N[C@H](CCCCN)C(=O)O [105 D] (H-[dR][dK][dW][dR][dA][dM][dI][dR][dL][dH][dA][dK][dW][dL][dR][dK]-OH),"Minimum inhibitory concentration (MIC), S. aureus RN4220",S. aureus RN4220,16 µg/mL
same,"Minimum inhibitory concentration (MIC), S. aureus COL + 4 μg/ml Ertapenem",S. aureus COL (MRSA),2 µg/mL
CC[C@@H](C)[C@@H](NC(=O)[C@@H](Cc1c[nH]c2ccccc12)NC(=O)[C@H](N)CCCCN)C(=O)N[C@@H](C(=O)N[C@H](Cc1c[nH]c2ccccc12)C(=O)N[C@H](CCCNC(=N)N)C(=O)N[C@H](Cc1c[nH]c2ccccc12)C(=O)N[C@H](CCCNC(=N)N)C(=O)N[C@H](Cc1ccccc1)C(=O)N[C@H](CCCCN)C(=O)N[C@H](CCCNC(=N)N)C(=O)O)C(C)C [201 D] (H-[dK][dW][dI][dV][dW][dR][dW][dR][dF][dK][dR]-OH),"Minimum inhibitory concentration (MIC), S. aureus RN4220",S. aureus RN4220,2 µg/mL
same,"Minimum inhibitory concentration (MIC), S. aureus COL + 4 μg/ml Ertapenem",S. aureus COL (MRSA),1 µg/mL
CC(C)C[C@@H](NC(=O)[C@H](N)CCCNC(=N)N)C(=O)N[C@H](CCCCN)C(=O)N[C@H](Cc1c[nH]c2ccccc12)C(=O)N[C@H](Cc1ccccc1)C(=O)N[C@H](CC(C)C)C(=O)N[C@H](CC(C)C)C(=O)N[C@H](Cc1ccccc1)C(=O)N[C@H](CCCNC(=N)N)C(=O)N[C@H](CCCCN)C(=O)N[C@H](CCCNC(=N)N)C(=O)O [308 D] (H-[dR][dL][dK][dW][dF][dL][dL][dF][dR][dK][dR]-OH),"Minimum inhibitory concentration (MIC), S. aureus RN4220",S. aureus RN4220,4 µg/mL
same,"Minimum inhibitory concentration (MIC), S. aureus COL + 4 μg/ml Ertapenem",S. aureus COL (MRSA),1 µg/mL
CC(C)C[C@@H](NC(=O)[C@@H](CCCCN)NC(=O)[C@@H](CCCCN)NC(=O)[C@@H](Cc1ccccc1)NC(=O)[C@@H](CC(C)C)NC(=O)[C@@H](Cc1c[nH]c2ccccc12)NC(=O)[C@@H](CCCNC(=N)N)NC(=O)[C@@H](Cc1c[nH]c2ccccc12)NC(=O)[C@@H](CCCCN)NC(=O)[C@@H](CCCNC(=N)N)NC(=O)[C@H](N)CCCCN)C(=O)O [310 D] (H-[dK][dR][dK][dW][dR][dW][dL][dF][dK][dK][dL]-OH),"Minimum inhibitory concentration (MIC), S. aureus RN4220",S. aureus RN4220,>64 µg/mL
same,"Minimum inhibitory concentration (MIC), S. aureus COL + 4 μg/ml Ertapenem",S. aureus COL (MRSA),<0.03 µg/mL
"C[C@@H]1[C@H](O)[C@@H](C)/C=C/C=C/C=C/C=C/C=C/C=C/C=C/[C@H](O[C@@H]2O[C@H](C)[C@@H](O)[C@H](N)[C@@H]2O)C[C@@H]2O[C@](O)(C[C@@H](O)C[C@@H](O)[C@H](O)CC[C@@H](O)C[C@@H](O)CC(=O)O[C@H]1C)C[C@H](O)[C@H]2C(=O)O [Amphotericin B, reference compound]",Minimum inhibitory concentration,[1]; [5],2
same,Minimum inhibitory concentration,[1]; [6],0.5
same,Minimum inhibitory concentration,[1]; [7],2
same,Minimum inhibitory concentration,[1]; [8],2
same,Minimum inhibitory concentration,[1]; [9],2
same,Minimum inhibitory concentration,[2]; [10],4
same,Minimum inhibitory concentration,[2]; [11],4
same,Minimum inhibitory concentration,[2]; [12],2
same,Minimum inhibitory concentration,[2]; [13],4
same,Minimum inhibitory concentration,[3]; [14],2
same,Minimum inhibitory concentration,[3]; [15],2
same,Minimum inhibitory concentration,[3]; [16],2
same,Minimum inhibitory concentration,[3]; [17],2
same,Minimum inhibitory concentration,[4],2
CC(C)C[C@@H](NC(=O)[C@@H](CCCCN)NC(=O)[C@@H](Cc1c[nH]c2ccccc12)NC(=O)[C@@H](CCCCN)NC(=O)[C@@H](C)NC(=O)[C@@H](Cc1c[nH]cn1)NC(=O)[C@@H](CC(C)C)NC(=O)[C@@H](CCCNC(=N)N)NC(=O)[C@@H](Cc1c[nH]c2ccccc12)NC(=O)[C@H](N)Cc1c[nH]c2ccccc12)C(=O)N[C@H](Cc1c[nH]c2ccccc12)C(=O)O [Chain109D] (H-[dW][dW][dR][dL][dH][dA][dK][dW][dK][dL][dW]-OH),Minimum inhibitory concentration,[1]; [5],128
same,Minimum inhibitory concentration,[1]; [6],128
same,Minimum inhibitory concentration,[1]; [7],128
same,Minimum inhibitory concentration,[1]; [8],128
same,Minimum inhibitory concentration,[1]; [9],128
same,Minimum inhibitory concentration,[2]; [10],128
same,Minimum inhibitory concentration,[2]; [11],128
same,Minimum inhibitory concentration,[2]; [12],16
same,Minimum inhibitory concentration,[2]; [13],64
same,Minimum inhibitory concentration,[3]; [14],128
same,Minimum inhibitory concentration,[3]; [15],128
same,Minimum inhibitory concentration,[3]; [16],128
same,Minimum inhibitory concentration,[3]; [17],8
same,Minimum inhibitory concentration,[4],128
CC[C@H](C)[C@H](NC(=O)[C@H](CCSC)NC(=O)[C@H](C)NC(=O)[C@H](CCCNC(=N)N)NC(=O)[C@H](Cc1c[nH]c2ccccc12)NC(=O)[C@H](CCCCN)NC(=O)[C@@H](N)CCCNC(=N)N)C(=O)N[C@@H](CCCNC(=N)N)C(=O)N[C@@H](CC(C)C)C(=O)N[C@@H](Cc1c[nH]cn1)C(=O)N[C@@H](C)C(=O)N[C@@H](CCCCN)C(=O)N[C@@H](CCCNC(=N)N)C(=O)N[C@@H](CC(C)C)C(=O)N[C@@H](CCCNC(=N)N)C(=O)N[C@@H](CCCCN)C(=O)O [Compound 104] (H-RKWRAMIRLHAKRLRK-OH),"Minimum inhibitory concentration (MIC), S. aureus RN4220",S. aureus RN4220,>64 µg/mL
same,"Minimum inhibitory concentration (MIC), S. aureus COL + 4 μg/ml Ertapenem",S. aureus COL (MRSA),0.25 µg/mL
CC[C@H](C)[C@H](NC(=O)[C@H](CCSC)NC(=O)[C@H](C)NC(=O)[C@H](CCCNC(=N)N)NC(=O)[C@H](Cc1c[nH]c2ccccc12)NC(=O)[C@H](CCCCN)NC(=O)[C@@H](N)CCCNC(=N)N)C(=O)N[C@@H](CCCNC(=N)N)C(=O)N[C@@H](CC(C)C)C(=O)N[C@@H](Cc1c[nH]cn1)C(=O)N[C@@H](C)C(=O)N[C@@H](CCCCN)C(=O)N[C@@H](Cc1c[nH]c2ccccc12)C(=O)N[C@@H](CC(C)C)C(=O)N[C@@H](CCCNC(=N)N)C(=O)N[C@@H](CCCCN)C(=O)O [Compound 105] (H-RKWRAMIRLHAKWLRK-OH),"Minimum inhibitory concentration (MIC), S. aureus RN4220",S. aureus RN4220,>64 µg/mL
same,"Minimum inhibitory concentration (MIC), S. aureus COL + 4 μg/ml Ertapenem",S. aureus COL (MRSA),0.5 µg/mL
CC[C@H](C)[C@H](NC(=O)[C@H](Cc1c[nH]c2ccccc12)NC(=O)[C@@H](N)CCCCN)C(=O)N[C@H](C(=O)N[C@@H](Cc1c[nH]c2ccccc12)C(=O)N[C@@H](CCCNC(=N)N)C(=O)N[C@@H](Cc1c[nH]c2ccccc12)C(=O)N[C@@H](CCCNC(=N)N)C(=O)N[C@@H](Cc1ccccc1)C(=O)N[C@@H](CCCCN)C(=O)N[C@@H](CCCNC(=N)N)C(=O)O)C(C)C [Compound 201] (H-KWIVWRWRFKR-OH),"Minimum inhibitory concentration (MIC), S. aureus RN4220",S. aureus RN4220,64 µg/mL
same,"Minimum inhibitory concentration (MIC), S. aureus COL + 4 μg/ml Ertapenem",S. aureus COL (MRSA),0.5 µg/mL
CC(C)C[C@H](NC(=O)[C@H](CC(C)C)NC(=O)[C@H](Cc1ccccc1)NC(=O)[C@H](Cc1c[nH]c2ccccc12)NC(=O)[C@H](CCCCN)NC(=O)[C@H](CC(C)C)NC(=O)[C@@H](N)CCCNC(=N)N)C(=O)N[C@@H](Cc1ccccc1)C(=O)N[C@@H](CCCNC(=N)N)C(=O)N[C@@H](CCCCN)C(=O)N[C@@H](CCCNC(=N)N)C(=O)O [Compound 308] (H-RLKWFLLFRKR-OH),"Minimum inhibitory concentration (MIC), S. aureus RN4220",S. aureus RN4220,>64 µg/mL
same,"Minimum inhibitory concentration (MIC), S. aureus COL + 4 μg/ml Ertapenem",S. aureus COL (MRSA),0.5 µg/mL
